From patent publication US20240246918A1, “COMPOUNDS AND COMPOSITIONS AS EIF4E INHIBITORS AND THE USES THEREOF” (Ribometrix, Inc., priority 2022, published 2024) come the findings set out here.

Where only a bound is given, the exact number is not on record here.

As a reminder, the IC50 is the concentration that inhibits the measured activity by half.

One assay addresses T1, human eIF4E protein (Homo sapiens, UniProt P06730).
T1 construct: purchased Novus NBP-45314
The assay can be described thus: Biochemical competitive binding assay (TR-FRET competition, EDA-m7GDP-ATTO-647N probe). The note with it: read-out: hEIF4E TR-FRET IC50. The procedure:
The potencies of compounds binding to human eIF4E protein were measured using a 384-well time-resolved fluorescence resonance energy transfer (TR-FRET) competition assay. The assay was performed in assay buffer containing 50 mM HTEPES pH 7.5, 100 mM KCl, 0.02% Tween-20, and 0.1 mg/mL bovine serum albumin (BSA). The reaction volume was 10 μL and each reaction contained 4 nM recombinant 6×HIS-tagged human EIF4E protein (Novus, NBP-45314), 5 nM EDA-m7GDP-ATTO-647N (Jena Bioscience, NU-827-647N), 2.5 nM Europium conjugated Anti-6×HIS antibody (PerkinElmer, AD0402) and varying concentrations of compound. The final DMSO concentration was […].
Compounds were prepared using 11-point, 4-fold serial dilutions in DMSO and 100 nL of diluted compounds were transferred to 384-well assay-ready plates. Recombinant human EIF4E protein at 2× final concentration (8 nM) was pre-incubated with Eu-anti-6×HIS antibody at 2× final concentration (5 nM) for 5 minutes, then 5 μL of the protein solution was added to assay-ready plates. The protein/compound mix was incubated for 15 minutes, after which 5 μL of a solution containing EDA-m7GDP-ATTO-647N probe at 2× final concentration (10 nM) was added. After a subsequent 15-minute incubation, time-resolved fluorescence of assay plates was measured using a Clariostar Plus microplate reader (BMG Labtech) and TR-FRET values were calculated by taking a ratio of the 665 to 620 wavelength signals. After normalization to the average of DMSO control and maximum inhibition control wells, concentration-response data were plotted and standard 4-parameter curve fitting (PEI Signals) was utilized to determine IC50 values.
Background: In TR-FRET formats the signal depends on donor and acceptor labels being close together.

For assay [1], the system named is COLO 205 colorectal tumor cells. The assay can be described thus: Tumor cell viability inhibition assay (CellTiter-Glo 2.0, 72 hours). It counts as cell-based. The note with it: COLO 205 cell viability. The procedure:
The effect of compound treatment on COLO 205 tumor cell viability was assessed using cellular ATP quantification methods (Promega CellTiter-Glo® 2.0, G9241), as follows. Test compounds were prepared using 11-point, 4-fold serial dilutions in DMSO and 100 nL of diluted compounds were transferred to 384-well assay-ready plates. COLO 205 (ATCC, CCL-222) colorectal tumor cells were seeded to assay-ready plates in RPMI-1640 medium supplemented with 10% FBS at 1500 cells in a volume of 33.5 microliters per well. After 72 hours of compound treatment, cellular ATP was assessed by CellTiter-Glo® 2.0 Cell Viability Assay method, according to the manufacturer's instructions. Luminescence was measured using a Clariostar Plus microplate reader (BMG Labtech) or equivalent. After normalization to the average of DMSO control and maximum inhibition control wells, concentration-response data were plotted and standard 4-parameter curve fitting (PEI Signals) was utilized to determine IC50
(In ATP-based viability assays light output follows the ATP content of the culture.)

T1 sequence (P06730 whole entry): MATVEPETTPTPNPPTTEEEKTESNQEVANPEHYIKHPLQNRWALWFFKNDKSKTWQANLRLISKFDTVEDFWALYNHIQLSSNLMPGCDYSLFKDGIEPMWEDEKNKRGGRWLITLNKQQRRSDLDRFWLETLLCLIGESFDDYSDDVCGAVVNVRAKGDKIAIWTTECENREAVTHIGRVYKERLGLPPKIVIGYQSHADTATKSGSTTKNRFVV

In the case of `Cc1cc(-c2cc(Cl)ccc2OCCn2c(C)nc3c(c2=O)C[C@H](N2CC[C@@H](OC(F)(F)F)C2)CC3)c2scc(C(=O)O)c2n1` (single isomer, unassigned) [Compound 387], the IC50 on human eIF4E protein was under 0.1 µM; in assay [1] (Homo sapiens, COLO 205, 72 h) it was under 5 µM.
For `Cc1cc(-c2cc(Cl)ccc2OCCn2c(C)nc3c(c2=O)C[C@@H](N2CC[C@H](OC(F)(F)F)C2)CC3)c2scc(C(=O)O)c2n1` (single isomer, unassigned) [Compound 388], in that order: under 0.1 µM and under 5 µM.
On the same counts, the results for `Cc1cc(-c2cc(Cl)ccc2OCCn2c(C)nc3c(c2=O)C[C@@H](N2CC[C@@H](OC(F)(F)F)C2)CC3)c2scc(C(=O)O)c2n1` (single isomer, unassigned) [Compound 389] are under 0.1 µM and under 5 µM.
For `Cc1cc(-c2cc(Cl)ccc2OCCn2c(C)nc3c(c2=O)C[C@H](N2CCC4(CC2)CC4(F)F)CC3)c2scc(C(=O)O)c2n1` (single isomer, unassigned) [Compound 390], in that order: under 0.1 µM and under 5 µM.
Take `Cc1cc(-c2cc(Cl)ccc2OCCn2c(C)nc3c(c2=O)C[C@@H](N2CCC4(CC2)CC4(F)F)CC3)c2scc(C(=O)O)c2n1` (single isomer, unassigned) [Compound 391]: the IC50 at human eIF4E protein is under 0.1 µM; in assay [1] (Homo sapiens, COLO 205, 72 h) it was under 5 µM.
For `Cc1cc(-c2cc(Cl)ccc2OCCn2c(C)nc3c(c2=O)C[C@@H](N2CC[C@H](OC(F)(F)F)C(C)(C)C2)CC3)c2scc(C(=O)O)c2n1` (single isomer, unassigned) [Compound 392], in that order: under 0.1 µM and under 5 µM.
For `Cc1cc(-c2cc(Cl)ccc2OCCn2c(C)nc3c(c2=O)C[C@@H](N2CC[C@@H](OC(F)(F)F)C(C)(C)C2)CC3)c2scc(C(=O)O)c2n1` (single isomer, unassigned) [Compound 393], in that order: under 0.1 µM and 5 to 20 µM.
On the same counts, the results for `Cc1cc(-c2cc(Cl)ccc2OCCn2c(C)nc3c(c2=O)C[C@H](N2CC[C@H](OC(F)(F)F)C(C)(C)C2)CC3)c2scc(C(=O)O)c2n1` (single isomer, unassigned) [Compound 394] are under 0.1 µM and under 5 µM.
On to `Cc1cc(-c2cc(Cl)ccc2OCCn2c(C)nc3c(c2=O)C[C@H](N2CC[C@@H](OC(F)(F)F)C(C)(C)C2)CC3)c2scc(C(=O)O)c2n1` (single isomer, unassigned) [Compound 395], for which the half-maximal inhibitory concentration (IC50) at human eIF4E protein is under 0.1 µM; in assay [1] (Homo sapiens, COLO 205, 72 h) it was 5 to 20 µM.
On the same counts, the results for `Cc1cc(-c2cc(Cl)ccc2OCCn2c(C)nc3c(c2=O)C[C@@H](N2[C@@H]4CC[C@H]2C[C@@H](OC(F)(F)F)C4)CC3)c2scc(C(=O)O)c2n1` (single isomer, unassigned) [Compound 396] are under 0.1 µM and under 5 µM.
On the same counts, the results for `Cc1cc(-c2cc(Cl)ccc2OCCn2c(C)nc3c(c2=O)C[C@@H](N2[C@@H]4CC[C@H]2C[C@H](OC(F)(F)F)C4)CC3)c2scc(C(=O)O)c2n1` (single isomer, unassigned) [Compound 397] are 0.1 to 0.5 µM and 5 to 20 µM.
As to `Cc1cc(-c2cc(Cl)ccc2OCCn2c(C)nc3c(c2=O)C[C@H](N2[C@@H]4CC[C@H]2C[C@@H](OC(F)(F)F)C4)CC3)c2scc(C(=O)O)c2n1` (single isomer, unassigned) [Compound 398], the IC50 on human eIF4E protein is 0.1 to 0.5 µM; in assay [1] (Homo sapiens, COLO 205, 72 h), over 20 µM.
On the same counts, the results for `Cc1cc(-c2cc(Cl)ccc2OCCn2c(C)nc3c(c2=O)C[C@H](N2[C@@H]4CC[C@H]2C[C@H](OC(F)(F)F)C4)CC3)c2scc(C(=O)O)c2n1` (single isomer, unassigned) [Compound 399] are under 0.1 µM and under 5 µM.
For `Cc1cc(-c2cc(Cl)ccc2OCCn2c(C)nc3c(c2=O)C[C@H](N2CCCC(F)(F)CC2)CC3)c2scc(C(=O)O)c2n1` (single isomer, unassigned) [Compound 401], the IC50 is under 0.1 µM on human eIF4E protein and under 5 µM in assay [1] (Homo sapiens, COLO 205, 72 h).
For `Cc1cc(-c2cc(Cl)ccc2OCCn2c(C)nc3c(c2=O)C[C@@H](N2CCCC(F)(F)CC2)CC3)c2scc(C(=O)O)c2n1` (single isomer, unassigned) [Compound 402], in that order: under 0.1 µM and under 5 µM.
Consider `Cc1cc(-c2cc(Cl)ccc2OCCn2c(C)nc3c(c2=O)C[C@H](N2CC[C@@H](OC(F)(F)F)C(F)(F)C2)CC3)c2scc(C(=O)O)c2n1` (single isomer, unassigned) [Compound 403], for which the IC50 on human eIF4E protein was under 0.1 µM; in assay [1] (Homo sapiens, COLO 205, 72 h), 5 to 20 µM.
On the same counts, the results for `Cc1cc(-c2cc(Cl)ccc2OCCn2c(C)nc3c(c2=O)C[C@H](N2CC[C@H](OC(F)(F)F)C(F)(F)C2)CC3)c2scc(C(=O)O)c2n1` (single isomer, unassigned) [Compound 404] are under 0.1 µM and 5 to 20 µM.
On the same counts, the results for `Cc1cc(-c2cc(Cl)ccc2OCCn2c(C)nc3c(c2=O)C[C@@H](N2CC[C@@H](OC(F)(F)F)C(F)(F)C2)CC3)c2scc(C(=O)O)c2n1` (single isomer, unassigned) [Compound 405] are under 0.1 µM and 5 to 20 µM.
For `Cc1cc(-c2cc(Cl)ccc2OCCn2c(C)nc3c(c2=O)C[C@@H](N2CC[C@H](OC(F)(F)F)C(F)(F)C2)CC3)c2scc(C(=O)O)c2n1` (single isomer, unassigned) [Compound 406], in that order: under 0.1 µM and 5 to 20 µM.
With `Cc1cc(-c2cc(Cl)ccc2OCCn2c(C)nc3c(c2=O)C[C@@H](N2CCC(COC(F)(F)F)CC2)CC3)c2scc(C(=O)O)c2n1` (single isomer, unassigned) [Compound 407], the IC50 on human eIF4E protein was under 0.1 µM; in assay [1] (Homo sapiens, COLO 205, 72 h), under 5 µM.
For `Cc1cc(-c2cc(Cl)ccc2OCCn2c(C)nc3c(c2=O)C[C@H](N2CCCC[C@H]2C)CC3)c2scc(C(=O)O)c2n1` (single isomer, unassigned) [Compound 408], in that order: under 0.1 µM and 5 to 20 µM.
As for `Cc1cc(-c2cc(Cl)ccc2OCCn2c(C)nc3c(c2=O)C[C@@H](N2CCCC[C@@H]2C)CC3)c2scc(C(=O)O)c2n1` (single isomer, unassigned) [Compound 409], the IC50 on human eIF4E protein is under 0.1 µM; in assay [1] (Homo sapiens, COLO 205, 72 h), over 20 µM.
In the case of `COC1CCN(C2CCc3nc(C)n(CC#Cc4ccc(Cl)cc4-c4ccnc5c(C(=O)O)csc45)c(=O)c3C2)CC1` (single isomer, unassigned) [Compound 410], the IC50 on human eIF4E protein is under 0.1 µM; in assay [1] it was 5 to 20 µM.
For the molecule `Cc1cc(-c2cc(Cl)ccc2OCCn2c(C)nc3c(c2=O)C[C@H](NC24CC5CC(CC(C5)C2)C4)CC3)c2scc(C(=O)O)c2n1` (single isomer, unassigned) [Compound 412], the IC50 on human eIF4E protein was under 0.1 µM; in assay [1] (Homo sapiens, COLO 205, 72 h), under 5 µM.
In the case of `Cc1cc(-c2cc(Cl)ccc2OCCn2c(C)nc3c(c2=O)C[C@@H](NC24CC5CC(CC(C5)C2)C4)CC3)c2scc(C(=O)O)c2n1` (single isomer, unassigned) [Compound 413], the IC50 on human eIF4E protein is under 0.1 µM; in assay [1] (Homo sapiens, COLO 205, 72 h), 5 to 20 µM.
On the same counts, the results for `COC1CCN(C2CCc3nc(C)n(CC#Cc4ccc(Cl)cc4-c4ccnc5c(C(=O)NS(C)(=O)=O)csc45)c(=O)c3C2)CC1` (single isomer, unassigned) [Compound 414] are under 0.1 µM and under 5 µM.
Turning to `CO[C@H]1CCN([C@@H]2CCc3nc(C)n(CCOc4ccc(Cl)cc4-c4cc(C)nc5c(C(=O)O)csc45)c(=O)c3C2)CC1(C)C` (single isomer, unassigned) [Compound 415], the IC50 is under 0.1 µM at human eIF4E protein and under 5 µM in assay [1] (Homo sapiens, COLO 205, 72 h).
On the same counts, the results for `Cc1cc(-c2cc(Cl)ccc2OCCn2c(C)nc3c(c2=O)CC(N2CCC(OC(F)(F)F)CC2)CC3)c2scc(C(=O)NS(=O)(=O)C(F)F)c2n1` (single isomer, unassigned) [Compound 416] are under 0.1 µM and 5 to 20 µM.
On the same counts, the results for `Cc1cc(-c2cc(Cl)ccc2OCCn2c(C)nc3c(c2=O)CC(N2CCC(OC(F)(F)F)CC2)CC3)c2scc(C(=O)NS(=O)(=O)C3CC3)c2n1` (single isomer, unassigned) [Compound 417] are under 0.1 µM and under 5 µM.
